Results reported in PubChem BioAssay (NCI).
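48-hour exposure; five concentrations; linearly interpolated endpoints. At the GI50, growth is halved. TGI is the concentration that stops growth completely.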

How the values were obtained:
Test in all cases: inhibition of tumour cell growth, NCI panel, 48 h
HL-60(TB) leukemia = test system: HL-60(TB) leukemia
OVCAR-4 ovarian = test system: OVCAR-4 ovarian
COLO 205 colon = test system: COLO 205 colon
DU-145 prostate = test system: DU-145 prostate
MOLT-4 leukemia = test system: MOLT-4 leukemia
NCI-H460 lung = test system: NCI-H460 lung
SNB-19 CNS = test system: SNB-19 CNS
BT-549 breast = test system: BT-549 breast
SK-MEL-28 melanoma = test system: SK-MEL-28 melanoma
786-0 renal = test system: 786-0 renal

SMILES: CO[C@@]12C[C@H]3[C@@H]([C@@H](O)[C@@H](OC(=O)/C=C/c4ccccc4)[C@@]4(O)C(C)(C)CCC[C@]34C)[C@@H](C)C1=CC(=O)O2
- GI50 (HL-60(TB) leukemia): 11.1 µM
- TGI (HL-60(TB) leukemia): > 100 µM
- GI50 (OVCAR-4 ovarian): 5.03 µM
- TGI (OVCAR-4 ovarian): 30.4 µM
- GI50 (COLO 205 colon): 5.42 µM
- TGI (COLO 205 colon): 54.2 µM
- GI50 (DU-145 prostate): 13.4 µM
- TGI (DU-145 prostate): 78.8 µM
- GI50 (MOLT-4 leukemia): > 100 µM
- TGI (MOLT-4 leukemia): > 100 µM
- GI50 (NCI-H460 lung): 12.4 µM
- TGI (NCI-H460 lung): 82.9 µM
- GI50 (SNB-19 CNS): 16.1 µM
- TGI (SNB-19 CNS): > 100 µM
- GI50 (BT-549 breast): 11.3 µM
- TGI (BT-549 breast): 27.9 µM
- GI50 (SK-MEL-28 melanoma): 11.3 µM
- TGI (SK-MEL-28 melanoma): 35.4 µM
- GI50 (786-0 renal): 24.8 µM
- TGI (786-0 renal): > 100 µM

SMILES: C#Cc1cccc(Oc2ccc(NC(=O)CCl)cc2)c1
- GI50 (HL-60(TB) leukemia): 63.4 µM
- TGI (HL-60(TB) leukemia): > 82.5 µM
- GI50 (OVCAR-4 ovarian): 33.3 µM
- TGI (OVCAR-4 ovarian): > 82.5 µM
- GI50 (COLO 205 colon): 21.2 µM
- TGI (COLO 205 colon): 73.3 µM
- GI50 (DU-145 prostate): > 82.5 µM
- TGI (DU-145 prostate): > 82.5 µM
- GI50 (MOLT-4 leukemia): 10.8 µM
- TGI (MOLT-4 leukemia): 77.1 µM
- GI50 (NCI-H460 lung): 25.3 µM
- TGI (NCI-H460 lung): > 82.5 µM
- GI50 (SNB-19 CNS): > 82.5 µM
- TGI (SNB-19 CNS): > 82.5 µM
- GI50 (BT-549 breast): 37.2 µM
- TGI (BT-549 breast): > 82.5 µM
- GI50 (SK-MEL-28 melanoma): > 82.5 µM
- TGI (SK-MEL-28 melanoma): > 82.5 µM
- GI50 (786-0 renal): > 82.5 µM
- TGI (786-0 renal): > 82.5 µM

SMILES: C1=C(c2ccccc2)C(c2ccc(OCCN3CCCCC3)cc2)Oc2ccccc21 (stereo not given)
- GI50 (HL-60(TB) leukemia): 1.73 µM
- TGI (HL-60(TB) leukemia): 3.76 µM
- GI50 (OVCAR-4 ovarian): 2.37 µM
- TGI (OVCAR-4 ovarian): 7.09 µM
- GI50 (COLO 205 colon): 1.62 µM
- TGI (COLO 205 colon): 3.15 µM
- GI50 (DU-145 prostate): 2.73 µM
- TGI (DU-145 prostate): 9.12 µM
- GI50 (MOLT-4 leukemia): 2.37 µM
- TGI (MOLT-4 leukemia): 5.84 µM
- GI50 (NCI-H460 lung): 1.94 µM
- TGI (NCI-H460 lung): 3.72 µM
- GI50 (SNB-19 CNS): 2.06 µM
- TGI (SNB-19 CNS): 4.16 µM
- GI50 (BT-549 breast): 1.61 µM
- TGI (BT-549 breast): 3.07 µM
- GI50 (SK-MEL-28 melanoma): 1.18 µM
- TGI (SK-MEL-28 melanoma): 2.54 µM
- GI50 (786-0 renal): 1.5 µM
- TGI (786-0 renal): 2.83 µM

SMILES: C[C@@H](Oc1ccc2[nH]nc(/C=C/c3cnn(CCO)c3)c2c1)c1c(Cl)cncc1Cl
- GI50 (HL-60(TB) leukemia): 0.237 µM
- TGI (HL-60(TB) leukemia): 3.21 µM
- GI50 (OVCAR-4 ovarian): 1.89 µM
- TGI (OVCAR-4 ovarian): 8.78 µM
- GI50 (COLO 205 colon): 0.107 µM
- TGI (COLO 205 colon): 0.306 µM
- GI50 (DU-145 prostate): 0.413 µM
- TGI (DU-145 prostate): > 43.6 µM
- GI50 (MOLT-4 leukemia): 0.488 µM
- TGI (MOLT-4 leukemia): 3.34 µM
- GI50 (NCI-H460 lung): 0.0866 µM
- TGI (NCI-H460 lung): 1.62 µM
- GI50 (SNB-19 CNS): 0.364 µM
- TGI (SNB-19 CNS): 3.52 µM
- GI50 (BT-549 breast): 0.142 µM
- TGI (BT-549 breast): 0.75 µM
- GI50 (SK-MEL-28 melanoma): 1.72 µM
- TGI (SK-MEL-28 melanoma): 4.85 µM
- GI50 (786-0 renal): 0.253 µM
- TGI (786-0 renal): 2.38 µM

SMILES: CS(=O)(=O)CCn1c(=O)c(Oc2ccc(F)cc2F)cc2cnc(NC3CCOCC3)nc21
- GI50 (HL-60(TB) leukemia): > 25 µM
- TGI (HL-60(TB) leukemia): > 25 µM
- GI50 (OVCAR-4 ovarian): > 25 µM
- TGI (OVCAR-4 ovarian): > 25 µM
- GI50 (COLO 205 colon): > 25 µM
- TGI (COLO 205 colon): > 25 µM
- GI50 (DU-145 prostate): > 25 µM
- TGI (DU-145 prostate): > 25 µM
- GI50 (MOLT-4 leukemia): > 25 µM
- TGI (MOLT-4 leukemia): > 25 µM
- GI50 (NCI-H460 lung): > 25 µM
- TGI (NCI-H460 lung): > 25 µM
- GI50 (SNB-19 CNS): > 25 µM
- TGI (SNB-19 CNS): > 25 µM
- GI50 (BT-549 breast): > 25 µM
- TGI (BT-549 breast): > 25 µM
- GI50 (SK-MEL-28 melanoma): > 25 µM
- TGI (SK-MEL-28 melanoma): > 25 µM
- GI50 (786-0 renal): > 25 µM
- TGI (786-0 renal): > 25 µM

SMILES: NCCP(=O)(O)O
- TGI (HL-60(TB) leukemia): > 100 µM
- TGI (OVCAR-4 ovarian): > 100 µM
- TGI (COLO 205 colon): > 100 µM
- TGI (DU-145 prostate): > 100 µM
- TGI (MOLT-4 leukemia): > 100 µM
- TGI (NCI-H460 lung): > 100 µM
- TGI (SNB-19 CNS): > 100 µM
- TGI (BT-549 breast): > 100 µM
- TGI (SK-MEL-28 melanoma): > 100 µM
- TGI (786-0 renal): > 100 µM

SMILES: C/C1=C/C(=O)O[C@@H]2C[C@@H](CC[C@H](C)/C=C\C=C\CC1)O[C@@](OCCc1ccccc1)([C@@H]1CSC(=O)N1)C2
- GI50 (HL-60(TB) leukemia): 1.31 µM
- TGI (HL-60(TB) leukemia): > 17.5 µM
- GI50 (OVCAR-4 ovarian): 0.225 µM
- TGI (OVCAR-4 ovarian): > 5.44 µM
- GI50 (COLO 205 colon): 0.0845 µM
- TGI (COLO 205 colon): 0.401 µM
- GI50 (DU-145 prostate): 0.282 µM
- TGI (DU-145 prostate): > 17.5 µM
- GI50 (MOLT-4 leukemia): > 5.2 µM
- TGI (MOLT-4 leukemia): > 17.5 µM
- GI50 (NCI-H460 lung): 0.27 µM
- TGI (NCI-H460 lung): > 17.5 µM
- GI50 (SNB-19 CNS): 0.12 µM
- TGI (SNB-19 CNS): > 17.5 µM
- GI50 (BT-549 breast): 0.0404 µM
- TGI (BT-549 breast): 0.113 µM
- GI50 (SK-MEL-28 melanoma): 0.218 µM
- TGI (SK-MEL-28 melanoma): 0.995 µM
- GI50 (786-0 renal): 0.107 µM
- TGI (786-0 renal): > 17.5 µM

SMILES: O=C(NNS(=O)(=O)c1ccc(F)cc1)c1cccnc1Nc1ccc(Cl)cc1Cl
- GI50 (HL-60(TB) leukemia): 25.2 µM
- TGI (HL-60(TB) leukemia): 62.3 µM
- GI50 (OVCAR-4 ovarian): 38 µM
- TGI (OVCAR-4 ovarian): > 100 µM
- GI50 (COLO 205 colon): 16.4 µM
- TGI (COLO 205 colon): 50.8 µM
- GI50 (DU-145 prostate): 22.9 µM
- TGI (DU-145 prostate): 55.4 µM
- GI50 (MOLT-4 leukemia): 22.9 µM
- TGI (MOLT-4 leukemia): > 100 µM
- GI50 (NCI-H460 lung): 31.4 µM
- TGI (NCI-H460 lung): > 100 µM
- GI50 (SNB-19 CNS): 29.2 µM
- TGI (SNB-19 CNS): > 100 µM
- GI50 (BT-549 breast): 36 µM
- TGI (BT-549 breast): > 100 µM
- GI50 (SK-MEL-28 melanoma): 89.2 µM
- TGI (SK-MEL-28 melanoma): > 100 µM
- GI50 (786-0 renal): 23 µM
- TGI (786-0 renal): 53.6 µM

SMILES: COc1ccc(-c2nnc(N3CCN(C(=O)CN4CCN(c5ccc(Cl)cc5)CC4)CC3)nc2-c2ccc(OC)cc2)cc1
- GI50 (HL-60(TB) leukemia): 10.7 µM
- TGI (HL-60(TB) leukemia): 52.3 µM
- GI50 (OVCAR-4 ovarian): > 100 µM
- TGI (OVCAR-4 ovarian): > 100 µM
- GI50 (COLO 205 colon): 16.9 µM
- TGI (COLO 205 colon): > 100 µM
- GI50 (DU-145 prostate): > 100 µM
- TGI (DU-145 prostate): > 100 µM
- GI50 (MOLT-4 leukemia): 6.53 µM
- TGI (MOLT-4 leukemia): > 100 µM
- GI50 (NCI-H460 lung): 14.4 µM
- TGI (NCI-H460 lung): > 100 µM
- GI50 (SNB-19 CNS): 40.1 µM
- TGI (SNB-19 CNS): > 100 µM
- GI50 (BT-549 breast): 8.88 µM
- TGI (BT-549 breast): 82.8 µM
- GI50 (SK-MEL-28 melanoma): > 100 µM
- TGI (SK-MEL-28 melanoma): > 100 µM
- GI50 (786-0 renal): 17.5 µM
- TGI (786-0 renal): 69.8 µM

SMILES: O=C(Nc1ccccc1O)c1ccc(CNC(=O)c2sccc2Nc2ccnc(C(F)(F)F)c2)cc1
- GI50 (HL-60(TB) leukemia): 6.27 µM
- TGI (HL-60(TB) leukemia): 44.8 µM
- GI50 (OVCAR-4 ovarian): 5.35 µM
- TGI (OVCAR-4 ovarian): > 100 µM
- GI50 (COLO 205 colon): 5.38 µM
- TGI (COLO 205 colon): 19.2 µM
- GI50 (DU-145 prostate): 6.1 µM
- TGI (DU-145 prostate): 21 µM
- GI50 (MOLT-4 leukemia): 1.78 µM
- TGI (MOLT-4 leukemia): 32.7 µM
- GI50 (NCI-H460 lung): 5.19 µM
- TGI (NCI-H460 lung): 21.4 µM
- GI50 (SNB-19 CNS): 13.2 µM
- TGI (SNB-19 CNS): 31.1 µM
- GI50 (BT-549 breast): 5.54 µM
- TGI (BT-549 breast): 35 µM
- GI50 (SK-MEL-28 melanoma): 5.57 µM
- TGI (SK-MEL-28 melanoma): 46.3 µM
- GI50 (786-0 renal): 9.92 µM
- TGI (786-0 renal): 25 µM
